Common to all, as to assay type: cell-based
For test [1], the system named is NF-κB. Kind of test: Test for an Activity of Inhibiting NF-κB Activation (gel shift assay, UVB-irradiated human epidermal cells). Particulars: light or radiation study, read-out: inhibitory rate (%) of NF-κB activation; for inhibition at 10 µM: concentration 10 μM; for inhibition at 50 µM: concentration 50 μM; for inhibition at 1000 µM: concentration 1 mM; for inhibition at 2000 µM: concentration 2 mM. The procedure:
Test for an Activity of Inhibiting NF-κB Activation
(§1) Eighteen hours later, the culture solution was replaced with a phenol red-free medium. The cells were subjected to UV irradiation (UVB: 50 mJ/m^2)using Dermaray M-DMR-80 (supplied by Toshiba Iryo Yohin KK). After from 4 to 5 hours passed, the cells were recovered, and the nucleoproteins were extracted in a usual manner. With respect to the resulting nucleoproteins, NF-κB activated by gel shift assay was detected. The amount of NF-κB was determined by measuring a radioactivity of an NF-κB band using a bio-imaging analyzer BAS 2000 (supplied by Fuji Photo Film). The rate of inhibition of NF-κB activation on the test compound was calculated using formula (III).
Rate (%) of inhibition of NF-κB activation={1−(A1−A3)/(A2−A3)}×100 (III)
A1: radioactivity of an NF-κB band in the addition of the test compound
A2: radioactivity of an NF-κB band in the non-addition of the test compound
A3: radioactivity of an NF-κB band when the test compound was not added, nor was UV irradiation conducted

The test system of test [2] is AP-1. The test can be described thus: Test for an Activity of Inhibiting AP-1 Activation (gel shift assay, UVA-irradiated human dermal fibroblasts). Particulars: AP1, light or radiation study, read-out: inhibitory rate (%) of AP-1 activation; for inhibition at 1 µM: concentration 1 μM; for inhibition at 500 µM: concentration 0.5 mM. The method, then: Test for an Activity of Inhibiting AP-1 Activation
as §1, with “The test compound was added to human dermal fibroblasts which had become confluent in a culture plate. Eighteen” for “Eighteen”, “(UVA: 20 J/cm^2) using” for “(UVB: 50 mJ/m^2)using”, “AP-1” for “NF-κB”, “(IV).” for “(III).”
Rate (%) of inhibition of AP-1 activation={1−(A4−A6)/(A5−A6)}×100 (IV)
A4: radioactivity of an AP-1 band in the addition of the test compound
A5: radioactivity of an AP-1 band in the non-addition of the test compound
A6: radioactivity of an AP-1 band when the test compound was not added, nor was UV irradiation conducted
On the technique in general: Mobility shift assays separate free from complexed probe on a gel.

In test [3] the test system is IL-1α. The test can be described thus: Test for an Activity of Inhibiting IL-1α Expression (ELISA, UVB-irradiated human epidermal cells). As to conditions: light or radiation study, 24 h, read-out: inhibitory rate (%) of IL-1α expression; for inhibition at 20 µM: concentration 20 μM; for inhibition at 50 µM: concentration 50 μM; for inhibition at 10 µM: concentration 10 μM; for inhibition at 500 µM: concentration 0.5 mM; for inhibition at 1000 µM: concentration 1 mM; for inhibition at 10000 µM: concentration 10 mM. The method, then:
Test for an Activity of Inhibiting IL-1α Expression
(§2) The test compound was added to human epidermal cells which had become confluent in a culture plate. Eighteen hours later, the culture solution was replaced with a phenol red-free medium. The cells were subjected to UV irradiation (UVB: 50 mJ/cm^2) using Dermaray M-DMR-80 (supplied by Toshiba Iryo Yohin KK). After 24 hours passed, the culture solution was recovered, and the IL-1α concentration in the culture solution was measured using IL-1α·ELISA System (supplied by Amersham Corp.). The rate of inhibition of IL-1α expression on the test compound was calculated using formula (V).
Rate (%) of inhibition of IL-1α expression={1−(B1−B3)/(B2−B3)}×100 (V)
B1: IL-1α concentration in the addition of the test compound
B2: IL-1α concentration in the non-addition of the test compound
B3: IL-1α concentration when the test compound was not added, nor was UV irradiation conducted

Test [4] deals with collagenase. The test can be described thus: Test for an Activity of Inhibiting Collagenase Expression (MMP-1 ELISA, UVA-irradiated human dermal fibroblasts). Particulars: Fibroblast, light or radiation study, 24 h, concentration 10 μM, read-out: inhibitory rate (%) of collagenase expression. The procedure: Test for an Activity of Inhibiting Collagenase Expression
as §2, with “dermal fibroblasts” for “epidermal cells”, “(UVA; 20 J/cm^2)” for “(UVB: 50 mJ/cm^2)”, “collagenase” for “IL-1α”, “MMP-1α·ELISA” for “IL-1α·ELISA”, “(VI).” for “(V).”
Rate (%) of inhibition of collagenase expression={1−(B4−B6)/(B5−B6)}×100 (VI)
B4: collagenase concentration in the addition of the test compound
B5: collagenase concentration in the non-addition of the test compound
B6: collagenase concentration when the test compound was not added, nor was UV irradiation conducted
In general terms: ELISA stands for enzyme-linked immunosorbent assay.

Like-named read-outs stand apart in the source and are kept apart here.

On to `CCCCCCCCCCCCNC(=O)[C@@H](C)NCc1ccccc1O` [N-(2-hydroxybenzyl)-D-alanine lauryl amide], for which the inhibition at 10 µM in test [1] turned out to be 29%. In addition, the figures for the inhibition at 50 µM in test [1] and in test [3] were 97% and 79%, respectively. The inhibition at 1 µM in test [2] was determined as 14%. The values for the inhibition at 20 µM in test [2] (concentration 20 μM) and in test [3] were 31% and 25%, respectively.

In the case of `CCCCCCCCCCCCOC(=O)[C@@H](C)NCc1ccccc1O` [N-(2-hydroxybenzyl)-D-alanine lauryl ester], the inhibition at 50 µM in test [1] was found to be 60%; in test [3] it was 31%. Also, the inhibition at 100 µM in test [1] (concentration 100 μM) turned out to be 59%. The inhibition at 10 µM in test [3] turned out to be 35%.

Turning to `CCNC(=O)[C@H](C)NCc1ccccc1O` [N-(2-hydroxybenzyl)-L-alanine ethyl amide], the inhibition at 1000 µM in test [1] came to 43%; in test [2] (concentration 1 mM), 52%; in test [3] it was 99%. Further, the inhibition at 2000 µM is 26% in test [1] and 131% in test [2] (concentration 2 mM). In addition, the inhibition at 500 µM in test [3] worked out at 81%.

Turning to `CCOC(=O)[C@H](C)NCc1ccccc1O` [N-(2-hydroxybenzyl)-L-alanine ethyl ester], the inhibition at 200 µM in test [1] (concentration 0.2 mM) was determined as 68%; in test [3] (concentration 0.2 mM), 61%. The inhibition at 2000 µM in test [1] is 77%; in test [3] (concentration 2 mM), 100%. In addition, the inhibition at 500 µM in test [2] came out at 26%.

`CC(C)OC(=O)[C@H](C)NCc1ccccc1O` [N-(2-hydroxybenzyl)-L-alanine isopropyl ester]: the inhibition at 100 µM in test [2] (concentration 0.1 mM) stood at 20%; in test [3] (concentration 0.1 mM), 36%. Further, the inhibition at 500 µM in test [2] is 35%. Further, in test [3], the inhibition at 1000 µM worked out at 53%.

As to `C[C@H](NCc1ccccc1O)C(=O)O` [N-(2-hydroxybenzyl)-L-alanine], the inhibition at 1000 µM in test [1] came to 20%. For the same molecule, the inhibition at 1 µM in test [3] (concentration 1 μM) was determined as 14%. In test [3], the inhibition at 10 µM came out at 100%.

Turning to `CCOC(=O)[C@H](CCCNC(=N)N)NCc1ccccc1O` [N-(2-hydroxybenzyl)-L-arginine ethyl ester], the inhibition at 500 µM in test [3] was found to be 65%.

On to `CCCCCCCCCCCCNC(=O)[C@H](CCCNC(=N)N)NCc1ccccc1O` [N-(2-hydroxybenzyl)-L-arginine lauryl amide], for which, in test [1], the inhibition at 10 µM was found to be 16% and the inhibition at 50 µM is 28%.

On to `CCCCCCCCCCCCOC(=O)[C@H](CCCNC(=N)N)NCc1ccccc1O` [N-(2-hydroxybenzyl)-L-arginine lauryl ester], for which the inhibition at 10 µM in test [4] is 52%.

With `CCOC(=O)[C@H](CC(C)C)NCc1ccccc1O` [N-(2-hydroxybenzyl)-L-leucine ethyl ester], in test [1], the inhibition at 1000 µM was 84% and the inhibition at 2000 µM worked out at 57%.

On to `CCOC(=O)[C@H](Cc1ccccc1)NCc1ccccc1O` [N-(2-hydroxybenzyl)-L-phenylalanine ethyl ester], for which the inhibition at 100 µM in test [3] (concentration 0.1 mM) is 25%.

For the molecule `CCOC(=O)[C@@H]1CCC(=O)N1Cc1ccccc1O` [N-(2-hydroxybenzyl)-L-pyroglutamic acid ethyl ester], in test [1], the inhibition at 1000 µM turned out to be 53% and the inhibition at 2000 µM was 85%. Further, in test [3], the inhibition at 500 µM stood at 84% and the inhibition at 1000 µM came to 55%.

For the molecule `CCCCCCCCCCCCOC(=O)[C@H](CO)NCc1ccccc1O` [N-(2-hydroxybenzyl)-L-serine lauryl ester], the inhibition at 50 µM in test [1] was found to be 79%. For the same molecule, the inhibition at 1 µM in test [2] is 43%. Also, the inhibition at 10 µM was determined as 49% in test [2] (concentration 10 μM) and 12% in test [3]. In addition, the inhibition at 100 µM in test [3] (concentration 100 μM) worked out at 31%.

Consider `O=C(O)[C@H](CO)NCc1ccccc1O` [N-(2-hydroxybenzyl)-L-serine], for which the inhibition at 10000 µM in test [1] (concentration 10 mM) amounted to 17%; in test [3], 62%. Also, the inhibition at 30000 µM in test [1] (concentration 30 mM) came out at 34%; in test [3] (concentration 30 mM), 70%.

In the case of `CCNC(=O)[C@H](Cc1ccc(O)cc1)NCc1ccccc1O` [N-(2-hydroxybenzyl)-L-tyrosine ethyl amide], in test [1], the inhibition at 1000 µM was 72% and the inhibition at 2000 µM amounted to 28%.

Regarding `CCOC(=O)[C@H](Cc1ccc(O)cc1)NCc1ccccc1O` [N-(2-hydroxybenzyl)-L-tyrosine ethyl ester], the inhibition at 100 µM in test [1] (concentration 0.1 mM) was found to be 64%. For the same molecule, in test [1] (concentration 0.5 mM), the inhibition at 500 µM came to 81%.

Turning to `CCCCCCCCCCCCNC(=O)CNCc1ccccc1O` [N-(2-hydroxybenzyl)glycine lauryl amide], in test [3], the inhibition at 20 µM came to 13% and the inhibition at 50 µM came out at 45%.

For the molecule `O=C(O)CNCc1ccccc1O` [N-(2-hydroxybenzyl)glycine], the values for the inhibition at 5000 µM in test [1] (concentration 5 mM) and in test [3] (concentration 5 mM) were 36% and 26%, respectively. For the same molecule, in test [3], the inhibition at 10000 µM was found to be 88%.

As for `S=C(S)N1CCCC1` [pyrrolidinedithiocarbamate, reference compound], the inhibition at 5 µM in test [1] (concentration 5 μM) was -9%; in test [3] (concentration 5 μM) it was -45%. Further, the inhibition at 10 µM in test [1] is 9%.

The record behind these values is patent US6552061B1, “Amino acid derivatives and anti-inflammatory agents” (Ajinomoto Co., Inc., priority 1998, dated 2003).
